Laboratory results reported in PubChem BioAssay AID651677 (The Scripps Research Institute Molecular Screening Center, 2012).
Where “and” joins values, the source holds several entries; their conditions need not be identical. Identical values can stand only once. Calls of active or inactive are those of the source. The rule behind the calls is not given here.

What follows are compounds tested against Perilipin-5 (Homo sapiens) + 1-acylglycerol-3-phosphate O-acyltransferase ABHD5 (Homo sapiens) (UniProt Q00G26+Q8WTS1) (assay: ABHD5-PLIN5 interaction inhibitors, dose response, biochemical, luminescence (AID 651677)).
Perilipin-5 (Homo sapiens) + 1-acylglycerol-3-phosphate O-acyltransferase ABHD5 (Homo sapiens), sequence (Q00G26 whole entry, looked up): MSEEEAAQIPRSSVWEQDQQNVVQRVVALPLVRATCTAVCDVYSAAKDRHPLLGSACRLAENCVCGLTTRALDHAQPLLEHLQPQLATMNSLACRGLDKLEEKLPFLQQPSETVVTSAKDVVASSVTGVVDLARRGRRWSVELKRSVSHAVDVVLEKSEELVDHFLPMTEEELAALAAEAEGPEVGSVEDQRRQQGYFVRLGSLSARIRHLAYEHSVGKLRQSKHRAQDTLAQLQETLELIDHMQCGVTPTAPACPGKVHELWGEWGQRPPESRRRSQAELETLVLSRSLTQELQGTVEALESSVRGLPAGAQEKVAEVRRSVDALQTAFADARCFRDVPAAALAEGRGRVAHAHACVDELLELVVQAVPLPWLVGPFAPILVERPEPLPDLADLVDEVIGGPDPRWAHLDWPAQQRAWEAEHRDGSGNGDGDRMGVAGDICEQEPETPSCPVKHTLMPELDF
Perilipin-5 (Homo sapiens) + 1-acylglycerol-3-phosphate O-acyltransferase ABHD5 (Homo sapiens), sequence (Q8WTS1 whole entry, looked up): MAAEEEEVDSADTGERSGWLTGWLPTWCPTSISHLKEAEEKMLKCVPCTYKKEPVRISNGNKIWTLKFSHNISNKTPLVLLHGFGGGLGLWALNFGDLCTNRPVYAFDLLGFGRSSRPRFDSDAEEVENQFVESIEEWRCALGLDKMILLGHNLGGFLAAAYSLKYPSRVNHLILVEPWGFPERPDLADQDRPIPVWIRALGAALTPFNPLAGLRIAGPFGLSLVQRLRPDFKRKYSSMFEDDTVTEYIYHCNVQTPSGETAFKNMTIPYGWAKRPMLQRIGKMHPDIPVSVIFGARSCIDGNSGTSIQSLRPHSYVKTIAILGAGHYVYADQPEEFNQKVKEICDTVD

SMILES	IC50
CC1=CC(C)(C)Nc2ccc(OC(=O)CN3C(=O)C4CCCCC4C3=O)cc21 (stereo not given)	2500 nM
CCCCCNC(=O)C(c1cccc2ccccc12)n1c(=O)c(-c2ccco2)nc2ccccc21 (stereo not given)	1570 nM
Cc1ccc2nc3cc([N+](=O)[O-])cc([N+](=O)[O-])c3cc2c1	600 nM
CSc1nnc(NC(=O)c2nc(S(=O)(=O)Cc3ccccc3)ncc2Cl)s1	3830 nM
CC1=CC(C)(C)Nc2ccc(OC(=O)c3cccnc3)cc21	2230 nM
CC(=O)Oc1ccc(C23c4ccccc4C2(OC(C)=O)c2cc(OC(C)=O)ccc23)cc1 (stereo not given)	720 nM
CCc1nnc(NC(=O)c2nc(S(=O)(=O)Cc3ccccc3)ncc2Cl)s1	4140 nM
CCN(CC)CCC(C)OC(c1ccccc1)c1ccccc1 (stereo not given)	3420 nM
COc1ccc(NC(=O)C(c2ccc(OC)cc2)n2c(=O)c(-c3ccco3)nc3ccccc32)cc1 (stereo not given)	6130 nM
O=C(NCc1ccccc1)C(c1cccc2ccccc12)n1c(=O)c(-c2ccco2)nc2ccccc21 (stereo not given)	2220 nM
O=c1[nH]c(C2CCN(S(=O)(=O)c3ccc(S(=O)(=O)NC4CC4)cc3)CC2)nc2c1nnn2Cc1ccc(F)cc1	5660 nM
O=C(Nc1ccc2c(c1)OCCO2)C(c1ccccc1F)n1c(=O)c(-c2ccco2)nc2ccccc21 (stereo not given)	inactive
C=C[C@]1(C)C[C@@H](OC(=O)CSCCN(CC)CC)[C@]2(C)C(C)CC[C@]3(CCC(=O)[C@H]32)[C@@H](C)[C@@H]1O (stereo not given in full)	8040 nM
O=c1[nH]c(C2CCN(S(=O)(=O)c3ccc(F)cc3)CC2)nc2c1nnn2Cc1ccc2c(c1)OCCO2	inactive
O=C(NCc1ccccc1)C(c1ccc(C(F)(F)F)cc1)n1c(=O)c(-c2ccco2)nc2ccccc21 (stereo not given)	1310 nM
O=[N+]([O-])/C=C/c1cn(Cc2ccc(F)cc2)c2ccccc12	3360 nM
CC(=O)Cc1cc(O)c2ccccc2c1OC(=O)c1ccc(Br)cc1	2520 nM
COC(=O)c1cc(=O)n(Cc2ccco2)c(=Nc2ccc(F)cc2)s1	3680 nM
CCC(C)NC(=O)Nc1ccc2c(c1)N(C)C(=O)c1ccccc1S2 (stereo not given)	4970 nM
COCCN(CCOC)c1nc(N)c2c(N)nc3c(c2c1C#N)CC(=O)N3Cc1ccc(Cl)cc1	inactive
O=C(NC1CCCCC1)C(C1CC1)n1c(=O)c(-c2ccco2)nc2ccccc21 (stereo not given)	2380 nM
O=C(NCc1ccccc1)C(c1ccccc1)n1c(=O)c(-c2ccco2)nc2ccccc21 (stereo not given)	2800 nM
CCOC(=O)C1C(OC(=O)c2ccccc2)CC2CCC1N2C (stereo not given)	9390 nM
CC1CN(Cc2c(O)ccc3c2oc(=O)c2ccccc23)CC(C)O1 (stereo not given)	2120 nM

SMILES	IC50
O=C(NCc1ccccc1)C(c1ccc(-c2ccccc2)cc1)n1c(=O)c(-c2ccco2)nc2ccccc21 (stereo not given)	2700 nM
COc1ccc(-c2cc(N)n(S(=O)(=O)c3c(F)c(F)c(F)c(F)c3F)n2)cc1OC	6830 nM
C#CCOCCOCCOCCNc1nc(N2CCN(C(=O)CCCCCCCCCCNC(=O)[C@@H](CCSC)n3cc(CCO)nn3)CC2)nc(N2CCN(C(=O)CCCCCCCCCCNC(=O)[C@@H]([C@H](C)O)n3cc(C)nn3)CC2)n1	> 39800 nM (inactive)
Cc1ccc(O)c(C(=O)/C=C/c2ccc3c(c2)OCCCO3)c1	4130 nM
CC1=CC(C)(C)Nc2ccc(OC(=O)CN3C(=O)c4cccc5cccc(c45)C3=O)cc21	6890 nM
COc1ccccc1-c1cc(C(=O)NC2CCN(C)CC2)c2ccc(Cl)c(C)c2n1	7180 nM
CN(C)CCCN(C(=O)CCc1ccccc1)c1nc2ccc(Cl)cc2s1	7370 nM
Cc1ccc(S(=O)(=O)N2C[C@@]3(O)Cn4c(=O)ccc(=O)n4C[C@@]3(OC(=O)NCC3CCCCC3)C2)cc1	3990 nM
CCOC(=O)c1c(NC(=O)/C=C/C(=O)O)sc(C)c1-c1ccc(C(C)(C)C)cc1	6740 nM
CN1CCC(=C2c3ccccc3CC(=O)c3sccc32)CC1	inactive
Cc1ccc(C(=O)c2coc3c2C(=O)C(=O)c2ccccc2-3)cc1	2530 nM
CCCCn1c(SCC(=O)NCc2ccco2)nnc1-c1ccoc1C	4820 nM
CC1=CC(C)(C)Nc2ccc(OC(=O)CN3C(=O)CCC3=O)cc21	2200 nM
CC1CCN(S(=O)(=O)c2ccc(NC(=O)Cc3cccs3)cc2)CC1	inactive
CN1[C@@H]2CC[C@H]1CC(OC1c3ccccc3CCc3ccccc31)C2 (stereo not given in full)	2490 nM
CC(O)CC(=O)OC[C@]12CC[C@H]3[C@@](C)(CC[C@H]4C(C)(C)CCC[C@]34C)[C@@H]1CC(C1=CC(=O)OC1O)O2 (stereo not given in full)	857 nM
O=C(C[n+]1cccc(CNC(=O)c2ccc(OC(F)F)cc2)c1)Nc1cccc(C(F)(F)F)c1	inactive
NC(=NCCCCCCN=C(N)/N=C(\N)Nc1ccc(Cl)cc1)/N=C(\N)Nc1ccc(Cl)cc1	3820 nM and 1660 nM
O=C1/C(=C/c2cccnc2)CC/C1=C\c1cccnc1	3310 nM
COc1ccccc1C=CC(=O)C=Cc1ccccc1OC	4790 nM
CC(C)(C)NC(=O)C(c1ccnc2ccccc12)n1c(=O)c(-c2ccco2)nc2ccccc21 (stereo not given)	4810 nM
CN(C)c1ccc(Cc2cc3c(O)ccc(O)c3cc(Cc3ccc(N(C)C)cc3)c2=O)cc1	1990 nM
Cc1cccc(C)c1NC(=O)C(c1ccc(C(F)(F)F)cc1)n1c(=O)c(-c2ccco2)nc2ccccc21 (stereo not given)	2220 nM
COc1ccc(NC(=O)C(c2ccccc2)n2c(=O)c(-c3ccco3)nc3ccccc32)cc1 (stereo not given)	8790 nM

SMILES	IC50
N#Cc1ccccc1OCc1cn(CC(=O)c2ccc(O)cc2)nn1	3680 nM
CC(=O)Oc1c(Br)cc(N(C(C)=O)S(=O)(=O)c2ccccc2)c2ccccc12	6410 nM
CC1Sc2ccc(S(=O)(=O)N3CCC(C(=O)NCc4ccc(Cl)cc4)CC3)cc2NC1=O (stereo not given)	inactive
CSc1nnc(NC(=O)c2nc(S(=O)(=O)Cc3cccc(C)c3)ncc2Cl)s1	2690 nM
CC(C)c1ccc(N2C=Nc3ccc(C(C)C)cc3C2)cc1	inactive
CC1=CC2C(C(O)CC3(C)C2CC(C)C32OCOC23COCO3)C2(C)C/C(=C\O)C(=O)C=C12 (stereo not given)	3270 nM
Cc1ccc(/C=C/C(=O)c2cc(Br)ccc2OC(=O)c2ccco2)cc1	922 nM
CCC1(C)N=C(c2ccc3c(c2)OCO3)CC(c2ccccc2O)N1 (stereo not given)	1570 nM
COc1ccc(NC(=S)N(CCCN2CCCC2)Cc2cccn2Cc2ccc(Cl)cc2)cc1Cl	inactive
CC(C)(C)NC(=O)C(c1ccc(C(F)(F)F)cc1)n1c(=O)c(-c2ccco2)nc2ccccc21 (stereo not given)	1330 nM
COc1ccc(NC(=O)C(c2ccnc3ccccc23)n2c(=O)c(-c3ccco3)nc3ccccc32)cc1 (stereo not given)	8170 nM
CSc1nnc(NC(=O)c2nc(S(=O)(=O)Cc3ccccc3F)ncc2Cl)s1	2770 nM
CC(=O)Nc1ccc(S(=O)(=O)N2c3ccc(F)cc3CCC2C)cc1 (stereo not given)	inactive
Cc1nnc(NC(=O)c2nc(S(=O)(=O)Cc3ccccc3C)ncc2Cl)s1	2710 nM
O=C(NC1CCCCC1)C(c1ccc(-c2ccccc2)cc1)n1c(=O)c(-c2ccco2)nc2ccccc21 (stereo not given)	1540 nM
O=C1NC(=O)N(Cc2ccc(F)cc2)C(=O)/C1=C\C=C\c1ccco1	1360 nM
O=C(COc1ccccc1Cl)Nc1ccc(N2CCCC2)cc1	> 39900 nM (inactive)
C=C1C(=O)O[C@H]2C[C@H]1[C@@H](OC(C)=O)C/C(C)=C/CC/C(C)=C\CC[C@]2(C)O	1910 nM
O=c1c(-c2ccco2)nc2ccccc2n1C(CCc1ccccc1)c1nc2ccccc2[nH]1 (stereo not given)	1580 nM
O=C(NC1CCCCC1)C(c1cc2ccccc2o1)n1c(=O)c(-c2ccco2)nc2ccccc21 (stereo not given)	1360 nM
Cc1ccc(CS(=O)(=O)c2ncc(Cl)c(C(=O)Nc3nnc(C(C)C)s3)n2)cc1	1380 nM
COc1ccc(OCc2cn(CC(=O)c3ccc(O)cc3)nn2)cc1	3070 nM
COc1ccc(NC(=O)C(c2ccc(C#N)cc2)n2c(=O)c(-c3ccco3)nc3ccccc32)cc1 (stereo not given)	8620 nM
O=C(/C(=C/O)N=Nc1ccc(Cl)cc1)c1ccncc1	8340 nM

SMILES	IC50
C=CC(=O)N1c2ccccc2Sc2ccc(NC(=O)OCC)cc21	6060 nM
O=S(=O)(NC1=NCCCCC1)c1ccc2sc(NS(=O)(=O)c3ccc4ccccc4c3)nc2c1	inactive
O=C(NCc1ccccc1)C(c1ccccc1F)n1c(=O)c(-c2ccco2)nc2ccccc21 (stereo not given)	2270 nM
COc1ccc(C(C(=O)Nc2ccc3c(c2)OCCO3)n2c(=O)c(-c3ccco3)nc3ccccc32)cc1 (stereo not given)	7560 nM
CCOc1cc(N)c(Cl)cc1C(=O)NCC1CN(Cc2ccc(F)cc2)CCO1 (stereo not given)	2500 nM
COC(=O)c1cc(=O)n(-c2ccc(F)cc2)c(=Nc2ccc(F)cc2)s1	3090 nM
COc1ccc(C(C(=O)NC2CCCCC2)n2c(=O)c(-c3ccco3)nc3ccccc32)cc1 (stereo not given)	1140 nM
CCOc1cc(/C=C2\CCC/C(=C\c3cc(Cl)c(O)c(OCC)c3)C2=O)cc(Cl)c1O	4160 nM
Cc1cc(C)c(C(CC(=O)c2cccs2)C(C#N)C#N)c(C)c1 (stereo not given)	8600 nM
CCOC(=O)/C(=C\c1ccc(Cl)cc1)c1nc2sc(C)c(C)c2c(=O)[nH]1	750 nM
NC(=O)C(C(=O)/C=C/c1ccc(Cl)cc1)=C1SCCS1	inactive
N#Cc1ccc(C(C(=O)NC2CCCCC2)n2c(=O)c(-c3ccco3)nc3ccccc32)cc1 (stereo not given)	1880 nM
COc1ccc(/C=C\C(=O)CC(O)(c2ccccc2)C(F)(F)F)cc1 (stereo not given)	2890 nM
O=C(NC1CCCCC1)C(c1ccccc1)n1c(=O)c(-c2ccco2)nc2ccccc21 (stereo not given)	670 nM
CN1C(=O)/C(=C/C=C/c2ccco2)C(=O)NC1=S	2960 nM
N#Cc1ccc(C(C(=O)NCc2ccccc2)n2c(=O)c(-c3ccco3)nc3ccccc32)cc1 (stereo not given)	1560 nM
C#CCN(C[C@@H]1[C@@H](OC(=O)Nc2cccs2)[C@@H](OC(=O)Nc2cccs2)Cn2c(=O)ccc(=O)n21)S(=O)(=O)c1ccc(C)cc1	1780 nM
COc1ccc(C(C(=O)NCc2ccccc2)n2c(=O)c(-c3ccco3)nc3ccccc32)cc1 (stereo not given)	2220 nM
C#CCN(C[C@@H]1[C@@H](OC(=O)NCC2CCCCC2)[C@@H](OC(=O)NCC2CCCCC2)Cn2c(=O)ccc(=O)n21)S(=O)(=O)c1ccc(C)cc1	3600 nM
C#CCN(C[C@@H]1[C@@H](OC(=O)NCCCCCC)[C@@H](OC(=O)NCCCCCC)Cn2c(=O)ccc(=O)n21)S(=O)(=O)c1ccc(C)cc1	4740 nM
CCN1/C(=C/C=C/c2oc3ccc(-c4ccccc4)cc3[n+]2CC)Oc2ccc(-c3ccccc3)cc21	1030 nM
N#Cc1ncc(Cc2ccccc2)nc1C#N	8580 nM
CC(CCc1ccco1)NC(=O)CCc1nnc2ccc(NCc3ccccc3Cl)nn12 (stereo not given)	8970 nM
